Tests used:
human FXR = molecular target: T1, human FXR (Homo sapiens, UniProt Q96RI1); assay: Full-length FXR transactivation (reporter gene) assay in HeLa cells; assay type: cell-based
T1 construct: expressed in transfected cells; host or cells: HeLa
T1 sequence (Q96RI1 1-486): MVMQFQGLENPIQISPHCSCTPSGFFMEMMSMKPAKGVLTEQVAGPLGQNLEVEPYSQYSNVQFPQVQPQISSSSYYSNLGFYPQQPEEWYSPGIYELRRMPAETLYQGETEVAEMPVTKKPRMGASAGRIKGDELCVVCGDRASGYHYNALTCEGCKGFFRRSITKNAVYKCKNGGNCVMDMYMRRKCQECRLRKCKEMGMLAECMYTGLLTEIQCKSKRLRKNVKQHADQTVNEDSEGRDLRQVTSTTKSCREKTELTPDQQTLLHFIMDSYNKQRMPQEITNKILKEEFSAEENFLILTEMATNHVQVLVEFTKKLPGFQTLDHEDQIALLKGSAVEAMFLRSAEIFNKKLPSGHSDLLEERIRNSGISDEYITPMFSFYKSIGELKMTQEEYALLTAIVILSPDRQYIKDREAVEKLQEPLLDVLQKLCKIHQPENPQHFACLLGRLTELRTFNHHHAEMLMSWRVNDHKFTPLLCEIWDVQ
T1 sequence (P19793 1-462 partner): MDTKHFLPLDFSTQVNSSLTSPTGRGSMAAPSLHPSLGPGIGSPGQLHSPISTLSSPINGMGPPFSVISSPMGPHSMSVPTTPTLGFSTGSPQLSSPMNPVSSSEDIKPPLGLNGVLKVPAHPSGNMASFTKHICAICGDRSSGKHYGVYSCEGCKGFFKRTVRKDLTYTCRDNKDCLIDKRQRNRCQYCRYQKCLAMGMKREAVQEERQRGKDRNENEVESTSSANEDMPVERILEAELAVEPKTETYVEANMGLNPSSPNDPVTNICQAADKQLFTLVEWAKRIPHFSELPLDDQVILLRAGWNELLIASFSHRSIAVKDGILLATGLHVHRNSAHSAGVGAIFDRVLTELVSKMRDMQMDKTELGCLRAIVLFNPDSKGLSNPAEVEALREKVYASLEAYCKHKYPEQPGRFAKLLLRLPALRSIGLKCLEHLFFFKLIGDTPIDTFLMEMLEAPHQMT

Abl = assay: Kinase inhibition assay (radiometric or HTRF); assay type: biochemical
[1] = system: kinases that interact with FXR; assay: Kinase inhibition profile, kinases that interact with FXR; assay type: biochemical
BSEP mRNA = assay: FXR target gene quantification (qRT-PCR) in HepG2 cells: BSEP; assay type: cell-based; details: for BSEP mRNA, mean fold activation compared to DMSO (0.1%): HepG2, 24 h
HepG2 cells = assay: WST-1 assay; assay type: cell-based; details: 48 h (or 24 h)
Method: In vitro biological evaluation […]
WST-1 assay (Roche Diagnostics International AG, Rotkreuz, Schweiz) was performed according to manufacturer’s protocol and as described previously. In brief, HepG2 cells were seeded in DMEM high glucose, supplemented with SP (1 mM), penicillin (100 U/mL), streptomycin (100 µg/mL) and 10% FCS in 96-well plates (3∙10^4 cells/well). After 24 h, medium was changed to DMEM high glucose, supplemented with penicillin (100 U/mL), streptomycin (100 µg/mL) and 1% charcoal stripped FCS and cells were incubated with 4 or 16 (final […]
and DMEM/1% DMSO as negative controls. After 48 h (or 24 h), WST reagent (Roche Diagnostics International AG) was added to each well according to manufacturer’s instructions. After 45 min incubation, absorption (450 nm/ reference: 620 nm) was determined with a Tecan Infinite M200 luminometer (Tecan Deutschland GmbH). Each experiment was repeated at least three times in triplicates. […]

With CS(=O)(=O)O.CS(=O)(=O)O.CS(=O)(=O)O.CS(=O)(=O)O.Cc1ccc(NC(=O)c2ccc(Cl)cc2)cc1Nc1nccc(-c2cccnc2)n1.Cc1ccc(NC(=O)c2ccc(Cl)cc2)cc1Nc1nccc(-c2cccnc2)n1.O.O.O [compound 16, 4-Chloro-N-(4-methyl-3-(4-(pyridin-3-yl)pyrimidin-2-ylamino)phenyl)benzamide dimesylate-sesquihydrate] the “Effect on transactivation efficacy of FXR agonists 1–3” value (human FXR; 16 at 10 µM) was “significantly enhances”, the Emax (human FXR; HeLa, read-out: hFXR: max. rel. act.) was 8.4% and the EC50 (human FXR; full-length reporter gene assay, HeLa cells, mean ± SEM, n ≥ 3, read-out: hFXR: EC50) was 1.9 ± 0.6 nM. For the same compound, the “Effect on EC50-value of 1” value (human FXR; in presence of 0.1 µM 16) was “not affected”, the “Increase of maximum relative activation of 1” value (human FXR; in presence of 0.1 µM 16) was “about 50%” and the “Inhibition of Abl” value (Abl) was “potent inhibitor”. The “Inhibition of kinases that interact with FXR” value [1] was “does not markedly inhibit”, the “CDCA-induced BSEP mRNA expression compared to 1 alone” value (BSEP mRNA; HepG2, 16 co-incubated with 1) was “about 3 fold” and the “BSEP mRNA, mean fold activation compared to DMSO (0.1%)” value (BSEP mRNA; 0.3 µM alone) was 2.64 ± 0.07. The “BSEP mRNA, mean fold activation compared to DMSO (0.1%)” value (BSEP mRNA; 16 (0.3 µM) + 1 (20 µM)) was 4.56 ± 0.77, the “BSEP mRNA, mean fold activation compared to DMSO (0.1%)” value (BSEP mRNA; 16 (0.3 µM) + 1 (50 µM)) was 29.37 ± 3.32 and the “WST-1, mean percent of untreated control” value (HepG2 cells; HepG2, 0.1 µM) was 113 ± 1%. The “WST-1, mean percent of untreated control” value (HepG2 cells; HepG2, 0.3 µM) was 107 ± 7%, the “WST-1, mean percent of untreated control” value (HepG2 cells; HepG2, 1 µM) was 112 ± 3% and the “WST-1, mean percent of untreated control” value (HepG2 cells; HepG2, 10 µM) was 92 ± 2%. For the same compound, the “WST-1, mean percent of untreated control” value (HepG2 cells; HepG2, 50 µM) was 87 ± 2% and the “WST-1, mean percent of untreated control” value (HepG2 cells; HepG2, 16 (0.3 µM) + 1 (50 µM)) was 93 ± 7%.

From publication PMC5931576, “Allosteric modulation of the farnesoid X receptor by a small molecule” (Scientific Reports, 2018)
